Results on ten compounds are retold here after the OPERA property sets (Mansouri et al. 2018).

As to `N#CC(C#N)=NNc1ccccc1[N+](=O)[O-]`, the lipophilicity (logP) was 2.9.
`N#CC(C#N)=NNc1cccc(O)c1` yielded a log partition coefficient (logP) of 2.28.
`N#CC(C#N)=NNc1ccc([N+](=O)[O-])cc1`: the logP is 2.37.
In turn, `CC(=O)c1ccc(NN=C(C#N)C#N)cc1` returned a logP of 2.1.
On to `N#CC(C#N)=NNc1ccc(CCCl)cc1`, for which the lipophilicity (logP) amounted to 3.58.
Take `N#CC(C#N)=NNc1cccc(Cl)c1`: the logP came to 3.38.
The compound `N#CC(C#N)=NNc1ccc(Cl)cc1` yielded a log partition coefficient (logP) of 3.39.
Next, `N#CC(C#N)=NNc1ccc(OC(F)(F)F)cc1`: 3.68; `Cc1ccc(NN=C(C#N)C#N)cc1`: 3.2; `CC(=O)Nc1ccc(NN=C(C#N)C#N)cc1`: 1.83.

The term logP denotes a log measure of how a compound divides between an organic and an aqueous phase. Read a low logP as lower lipophilicity.
